Data reported in PubChem BioAssay (NCI).
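Cells were grown in 96-well plates and exposed to each compound for 48 hours at five concentrations; endpoints were interpolated linearly between bracketing concentrations, or set to the highest concentration if not reached. Definition used: TGI = concentration required for complete inhibition of growth.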

Key:
Test in all cases: inhibition of tumour cell growth, NCI panel, 48 h
HCT-116 colon = system: HCT-116 colon
BT-549 breast = system: BT-549 breast
SF-268 CNS = system: SF-268 CNS
NCI-H226 lung = system: NCI-H226 lung
HOP-92 NSCLC = system: HOP-92 NSCLC
SR leukemia = system: SR leukemia
ACHN renal = system: ACHN renal
SW-620 colon = system: SW-620 colon
OVCAR-3 ovarian = system: OVCAR-3 ovarian
HT29 colon = system: HT29 colon
HCC-2998 colon = system: HCC-2998 colon
OVCAR-8 ovarian = system: OVCAR-8 ovarian
MDA-MB-435 = system: MDA-MB-435
SK-OV-3 ovarian = system: SK-OV-3 ovarian
786-0 renal = system: 786-0 renal
SK-MEL-5 melanoma = system: SK-MEL-5 melanoma
SN12C renal = system: SN12C renal
T-47D breast = system: T-47D breast
OVCAR-4 ovarian = system: OVCAR-4 ovarian
RPMI-8226 leukemia = system: RPMI-8226 leukemia
HOP-62 NSCLC = system: HOP-62 NSCLC
CCRF-CEM leukemia = system: CCRF-CEM leukemia
TK-10 renal = system: TK-10 renal
KM12 colon = system: KM12 colon
MOLT-4 leukemia = system: MOLT-4 leukemia
HS 578T breast = system: HS 578T breast
LOX IMVI melanoma = system: LOX IMVI melanoma
SK-MEL-2 melanoma = system: SK-MEL-2 melanoma
NCI-H23 lung = system: NCI-H23 lung
SF-539 CNS = system: SF-539 CNS
M14 melanoma = system: M14 melanoma
EKVX NSCLC = system: EKVX NSCLC
SNB-75 CNS = system: SNB-75 CNS
A498 renal = system: A498 renal
MDA-MB-231 breast = system: MDA-MB-231 breast
NCI-H460 lung = system: NCI-H460 lung
CAKI-1 renal = system: CAKI-1 renal
SNB-19 CNS = system: SNB-19 CNS
UACC-257 melanoma = system: UACC-257 melanoma
COLO 205 colon = system: COLO 205 colon
UACC-62 melanoma = system: UACC-62 melanoma
PC-3 prostate = system: PC-3 prostate
MALME-3M melanoma = system: MALME-3M melanoma
SF-295 CNS = system: SF-295 CNS
HCT-15 colon = system: HCT-15 colon
DU-145 prostate = system: DU-145 prostate
NCI/ADR-RES ovarian = system: NCI/ADR-RES ovarian
IGROV1 ovarian = system: IGROV1 ovarian
OVCAR-5 ovarian = system: OVCAR-5 ovarian
U251 CNS = system: U251 CNS
RXF 393 renal = system: RXF 393 renal
MCF7 breast = system: MCF7 breast
NCI-H522 lung = system: NCI-H522 lung
A549 NSCLC = system: A549 NSCLC
HL-60(TB) leukemia = system: HL-60(TB) leukemia
UO-31 renal = system: UO-31 renal
K-562 leukemia = system: K-562 leukemia
MDA-N = system: MDA-N
SK-MEL-28 melanoma = system: SK-MEL-28 melanoma

O=c1[nH]c(Nc2cccc(Cl)c2)nc2nc[nH]c12
TGI (HCT-116 colon): > 100 µM | TGI (BT-549 breast): > 100 µM | TGI (SF-268 CNS): > 100 µM | TGI (NCI-H226 lung): > 100 µM | TGI (HOP-92 NSCLC): > 100 µM | TGI (SR leukemia): > 100 µM | TGI (ACHN renal): > 100 µM | TGI (SW-620 colon): > 100 µM | TGI (OVCAR-3 ovarian): > 100 µM | TGI (HT29 colon): > 100 µM | TGI (HCC-2998 colon): > 100 µM | TGI (OVCAR-8 ovarian): > 100 µM | TGI (MDA-MB-435): > 100 µM | TGI (SK-OV-3 ovarian): > 100 µM | TGI (786-0 renal): > 100 µM | TGI (SK-MEL-5 melanoma): > 100 µM | TGI (SN12C renal): > 100 µM | TGI (T-47D breast): > 100 µM | TGI (OVCAR-4 ovarian): > 100 µM | TGI (RPMI-8226 leukemia): > 100 µM | TGI (HOP-62 NSCLC): > 100 µM | TGI (CCRF-CEM leukemia): > 100 µM | TGI (TK-10 renal): > 100 µM | TGI (KM12 colon): > 100 µM | TGI (MOLT-4 leukemia): > 100 µM | TGI (HS 578T breast): > 100 µM | TGI (LOX IMVI melanoma): > 100 µM | TGI (SK-MEL-2 melanoma): > 100 µM | TGI (NCI-H23 lung): > 100 µM | TGI (SF-539 CNS): > 100 µM | TGI (M14 melanoma): > 100 µM | TGI (EKVX NSCLC): > 100 µM | TGI (SNB-75 CNS): > 100 µM | TGI (A498 renal): > 100 µM | TGI (MDA-MB-231 breast): > 100 µM | TGI (NCI-H460 lung): > 100 µM | TGI (CAKI-1 renal): > 100 µM | TGI (SNB-19 CNS): > 100 µM | TGI (UACC-257 melanoma): > 100 µM | TGI (COLO 205 colon): > 100 µM | TGI (UACC-62 melanoma): > 100 µM | TGI (PC-3 prostate): > 100 µM | TGI (MALME-3M melanoma): > 100 µM | TGI (SF-295 CNS): > 100 µM | TGI (HCT-15 colon): > 100 µM | TGI (DU-145 prostate): > 100 µM | TGI (NCI/ADR-RES ovarian): > 100 µM | TGI (IGROV1 ovarian): > 100 µM | TGI (OVCAR-5 ovarian): > 100 µM | TGI (U251 CNS): > 100 µM | TGI (RXF 393 renal): > 100 µM | TGI (MCF7 breast): > 100 µM | TGI (NCI-H522 lung): > 100 µM | TGI (A549 NSCLC): > 100 µM | TGI (HL-60(TB) leukemia): > 100 µM | TGI (UO-31 renal): > 100 µM | TGI (K-562 leukemia): > 100 µM

COc1cc(/C=C2\CCC(C)C3=C2NC(=S)NC3c2cc(OC)c(OC)c(OC)c2)cc(OC)c1OC (stereo not drawn)
TGI (HCT-116 colon): > 100 µM | TGI (SF-268 CNS): > 100 µM | TGI (HOP-92 NSCLC): > 100 µM | TGI (SR leukemia): > 100 µM | TGI (ACHN renal): > 100 µM | TGI (SW-620 colon): > 100 µM | TGI (HT29 colon): > 100 µM | TGI (OVCAR-8 ovarian): > 100 µM | TGI (MDA-MB-435): > 100 µM | TGI (SK-OV-3 ovarian): > 100 µM | TGI (786-0 renal): > 100 µM | TGI (SK-MEL-5 melanoma): 59 µM | TGI (SN12C renal): > 100 µM | TGI (OVCAR-4 ovarian): > 100 µM | TGI (MDA-N): > 100 µM | TGI (RPMI-8226 leukemia): 68.4 µM | TGI (HOP-62 NSCLC): > 100 µM | TGI (CCRF-CEM leukemia): > 100 µM | TGI (TK-10 renal): > 100 µM | TGI (SK-MEL-28 melanoma): > 100 µM | TGI (KM12 colon): > 100 µM | TGI (MOLT-4 leukemia): 92.4 µM | TGI (HS 578T breast): > 100 µM | TGI (LOX IMVI melanoma): > 100 µM | TGI (SK-MEL-2 melanoma): > 100 µM | TGI (M14 melanoma): > 100 µM | TGI (EKVX NSCLC): > 100 µM | TGI (SNB-75 CNS): 66.3 µM | TGI (A498 renal): > 100 µM | TGI (MDA-MB-231 breast): > 100 µM | TGI (CAKI-1 renal): > 100 µM | TGI (SNB-19 CNS): > 100 µM | TGI (UACC-257 melanoma): > 100 µM | TGI (UACC-62 melanoma): > 100 µM | TGI (PC-3 prostate): > 100 µM | TGI (HCT-15 colon): > 100 µM | TGI (DU-145 prostate): > 100 µM | TGI (IGROV1 ovarian): > 100 µM | TGI (OVCAR-5 ovarian): > 100 µM | TGI (U251 CNS): > 100 µM | TGI (RXF 393 renal): > 100 µM | TGI (MCF7 breast): > 100 µM | TGI (A549 NSCLC): > 100 µM | TGI (HL-60(TB) leukemia): 39.7 µM | TGI (UO-31 renal): 66 µM | TGI (K-562 leukemia): > 100 µM
